US20240279201A1, “DUAL WNT SIGNALING PATHWAY INHIBITORS AND AMPK ACTIVATORS FOR TREATMENTS OF DISEASE” (priority 2021, published 2024)

Legend:
CRC cells = conditions: as reported in literature; cited from earlier work
AMPK = AMPK activation in SW620 cells (immunoblotting); type: cell-based
Procedure: HEK293 cells were stained with anti-axin-1 or DAPI and studied under fluorescence microscopy. FIG. 26B is an image illustrating enhanced AMPK phosphorylation by Axin overexpression (empty pcDNA3 vs. pcDNA3-Axin-1) in HEK293 cells. […] See FIG. 23A-FIG. 23C for Axin knockdown. […] Cells were treated for 24 h.
Treatment of compound YW2049 indicated no effects on total protein levels of AMPK and ACC in SW620 cells.
The effects of FX analogs in Axin stabilization and AMPK activation were further studied by genetic manipulation of Axin. Axin overexpression led to enhanced AMPK activation (FIG. 26A and FIG. 26B). In contrast, it has been reported that knockdown of Axin in cells and in mouse liver impairs AMPK activation. […] This timeline is consistent with the reports that Axin can form a complex with AMPK.

[1] = tested on: Wnt/β-Catenin signaling pathway; experiment: Wnt signaling luciferase (TOPflash) reporter gene assay; type: cell-based; conditions: for IC50: luciferase reporter gene assay, mean of three independent experiments, read-out: IC50 (nM) to inhibit the Wnt signaling activity
From the text: A dual-luciferase gene reporter assay was used to test inhibitory activities of new compounds on Wnt signaling. […] Therefore, the effects of new compounds on AMPK was examined. […]

[2] = Cytotoxicity (CC50) during the luciferase gene reporter assay; type: cell-based; conditions: human, HEK293 cells; short treatment duration of the luciferase gene reporter assay
[3] = tested on: Wnt signaling in SW480 cells; experiment: Luciferase gene reporter (TOPflash) assay in SW480 cells; type: cell-based, human

Row | IC50 [1] | SMILES | CC50 [2] | other results
1 | – | O=c1[nH]cc(F)c(=O)[nH]1 [5-FU] | – | IC50 in killing CRC cells (CRC cells): low μM
2 | – | Cc1ccccc1-n1nnc(C(=O)Nc2ccc3ccccc3n2)c1C [YW1128] | – | p-AMPK levels (AMPK): increased
3 | > 1000 nM | Cc1ccccc1-n1cc(C(=O)Nc2ccc3ccccc3n2)nn1 [YA70131, N-(Quinolin-2-yl)-1-(o-tolyl)-1H-1,2,3-triazole-4-carboxamide] | > 92000 nM | –
4 | > 1000 nM | Cc1ccccc1-n1nnc(C(=O)Nc2cnc3ccccc3c2)c1C [YA6161, 5-Methyl-N-(quinolin-3-yl)-1-(o-tolyl)-1H-1,2,3-triazole-4-carboxamide] | > 92000 nM | –
5 | > 1000 nM | Cc1ccccc1-n1ncc(C(=O)Nc2ncc(-c3ccccc3)s2)c1C [YA7019, 5-Methyl-N-(5-phenylthiazol-2-yl)-1-(o-tolyl)-1H-pyrazole-4-carboxamide] | > 92000 nM | –
6 | 6 nM | Cc1c(C(=O)Nc2cnc3ccccc3n2)nnn1-c1ccccc1C#N [YA6137, 1-(2-Cyanophenyl)-5-methyl-N-(quinoxalin-2-yl)-1H-1,2,3-triazole-4-carboxamide] | > 92000 nM | –
7 | > 1000 nM | CC(C)(C)c1c(C(=O)Nc2nc3ccc(F)cc3s2)nnn1-c1ccccc1F [YA6174, 5-(Tert-butyl)-N-(6-fluorobenzo[d]thiazol-2-yl)-1-(2-fluorophenyl)-1H-1,2,3-triazole-4-carboxamide] | > 92000 nM | inhibition at 1 µM [1]: 40%
8 | > 1000 nM | Cc1ccc(-c2csc(NC(=O)c3nnn(-c4ccccc4C)c3C)n2)c(C)c1 [YA4169] | > 92000 nM | –
9 | > 1000 nM | Cc1ccccc1-n1nnc(C(=O)Nc2ccc3cccc(Br)c3n2)c1C [YA6146, N-(8-Bromoquinolin-2-yl)-5-methyl-1-(o-tolyl)-1H-1,2,3-triazole-4-carboxamide] | > 92000 nM | –
10 | – | O=C1[O][Pt]2([NH][C@@H]3CCCC[C@H]3[NH]2)[O]C1=O [oxaliplatin] | – | IC50 in killing CRC cells (CRC cells): low μM
11 | 4 nM | Cc1ccccc1-n1nnc(C(=O)Nc2nc3ccc(F)cc3s2)c1C [YA4103, N-(6-Fluorobenzo[d]thiazol-2-yl)-5-methyl-1-(o-tolyl)-1H-1,2,3-triazole-4-carboxamide] | > 92000 nM | –
12 | > 1000 nM | Cc1ccccc1-n1nnc(C(=O)Nc2ccc3ccncc3c2)c1C [YA61691, N-(Isoquinolin-7-yl)-5-methyl-1-(o-tolyl)-1H-1,2,3-triazole-4-carboxamide] | > 92000 nM | –
13 | > 1000 nM | Cc1ccccc1-n1ncc(C(=O)Nc2ccc(-c3ccccc3)cc2)c1C [YA7016, N-([1,1′-biphenyl]-4-yl)-5-methyl-1-(o-tolyl)-1H-pyrazole-4-carboxamide] | > 92000 nM | –
14 | > 1000 nM | Cc1ccccc1-n1nnc(C(=O)Nc2ccc3cc(O)ccc3n2)c1C [YA6079] | > 92000 nM | –
15 | > 1000 nM | COc1ccc2sc(NC(=O)c3nnn(-c4ccccc4C)c3C)nc2c1 [YA4045, N-(5-Methoxybenzo[d]thiazol-2-yl)-5-methyl-1-(o-tolyl)-1H-1,2,3-triazole-4-carboxamide] | > 92000 nM | –
16 | > 1000 nM | Cc1c(C(=O)Nc2nc3ccccc3s2)nnn1-c1ccc(F)cc1 [YA1076, N-(Benzo[d]thiazol-2-yl)-1-(4-fluorophenyl)-5-methyl-1H-1,2,3-triazole-4-carboxamide] | > 92000 nM | inhibition at 1 µM [1]: 15%

Row | IC50 [1] | SMILES | CC50 [2] | other results
17 | 67 nM | Cc1ccccc1-n1nnc(C(=O)Nc2nc3ccc(Cl)cc3s2)c1C [YA4071, N-(6-Chlorobenzo[d]thiazol-2-yl)-5-methyl-1-(o-tolyl)-1H-1,2,3-triazole-4-carboxamide] | > 92000 nM | –
18 | > 1000 nM | CC(C)c1c(C(=O)Nc2nc3ccccc3s2)cnn1-c1ccccc1 [YA6144, N-(Benzo[d]thiazol-2-yl)-5-isopropyl-1-phenyl-1H-pyrazole-4-carboxamide] | > 92000 nM | –
19 | 8.8 nM | CC(C)c1c(C(=O)Nc2nc3ccccc3s2)nnn1-c1ccccc1F [YA4005, N-(Benzo[d]thiazol-2-yl)-1-(2-fluorophenyl)-5-isopropyl-1H-1,2,3-triazole-4-carboxamide] | > 92000 nM | inhibition at 1 µM [1]: 99%
20 | > 1000 nM | Cc1ccccc1-n1nnc(C(=O)Nc2ccc3cccnc3c2)c1C [YA6162, 5-Methyl-N-(quinolin-7-yl)-1-(o-tolyl)-1H-1,2,3-triazole-4-carboxamide] | > 92000 nM | –
21 | > 1000 nM | COc1cccc2sc(NC(=O)c3nnn(-c4ccccc4C)c3C)nc12 [YA4061, N-(4-Methoxybenzo[d]thiazol-2-yl)-5-methyl-1-(o-tolyl)-1H-1,2,3-triazole-4-carboxamide] | > 92000 nM | inhibition at 1 µM [1]: 27%
22 | > 1000 nM | Cc1ccccc1-n1nnc(C(=O)Nc2ccc3c(Br)cccc3n2)c1C [YA6167, N-(5-Bromoquinolin-2-yl)-5-methyl-1-(o-tolyl)-1H-1,2,3-triazole-4-carboxamide] | > 92000 nM | –
23 | > 1000 nM | Cc1ccccc1-n1nnc(C(=O)Nc2nc(-c3ccccn3)cs2)c1C [YA4173] | > 92000 nM | inhibition at 1 µM [1]: 7%
24 | 0.76 nM | CCc1c(C(=O)Nc2nc3ccccc3s2)nnn1-c1ccccc1F [YA4001, N-(Benzo[d]thiazol-2-yl)-5-ethyl-1-(2-fluorophenyl)-1H-1,2,3-triazole-4-carboxamide] | > 92000 nM | –
25 | > 1000 nM | O=C(Nc1ccc2ccccc2n1)c1nnn(-c2ccccc2F)n1 [YA70032, 2-(2-Fluorophenyl)-N-(quinolin-2-yl)-2H-tetrazole-5-carboxamide] | > 92000 nM | –
26 | 1.8 nM | COc1ccccc1-n1nnc(C(=O)Nc2cnc3ccccc3n2)c1C [YA6136, 1-(2-Methoxyphenyl)-5-methyl-N-(quinoxalin-2-yl)-1H-1,2,3-triazole-4-carboxamide] | > 92000 nM | –
27 | > 1000 nM | Cc1ccccc1-n1nnc(C(=O)Nc2ncc3ccccc3n2)c1C [YA6061, 5-Methyl-N-(quinazolin-2-yl)-1-(o-tolyl)-1H-1,2,3-triazole-4-carboxamide] | > 92000 nM | –
28 | > 1000 nM | Cc1ccccc1C1CCC(C(=O)Nc2nc3ccccc3s2)C1 (stereo not shown) [YA4138] | > 92000 nM | –
29 | > 1000 nM | Cc1ccccc1-n1nnc(C(=O)Nc2cccc3ncccc23)c1C [YA61693, 5-Methyl-N-(quinolin-5-yl)-1-(o-tolyl)-1H-1,2,3-triazole-4-carboxamide] | > 92000 nM | –
30 | > 1000 nM | O=C(Nc1ccc2ccccc2n1)c1nnn(-c2ccccc2)n1 [YA6171, 2-Phenyl-N-(quinolin-2-yl)-2H-tetrazole-5-carboxamide] | > 92000 nM | –
31 | – | Oc1nc(-c2ccc(C(F)(F)F)cc2)nc2c1CSCC2 [XAV939, reference compound] | > 92000 nM | inhibition at 1 µM [1]: 74%; extent of inhibition of Wnt signaling activity in reporter assays [3]: could not fully inhibit Wnt signaling activity
32 | > 1000 nM | Cc1ccccc1-n1nnc(C(=O)Nc2ccc3cnccc3c2)c1C [YA61692, N-(Isoquinolin-6-yl)-5-methyl-1-(o-tolyl)-1H-1,2,3-triazole-4-carboxamide] | > 92000 nM | –
